Results: PubChem BioAssay (NCI)
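Each compound was tested at five concentrations against cells in 96-well plates for 48 hours. GI50: concentration for 50% inhibition of growth. Definition used: TGI = concentration required for complete inhibition of growth.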

What was measured:
Assay in all cases: NCI tumour cell line growth inhibition, 48 h
PC-3 prostate = tested on: PC-3 prostate
SK-MEL-28 melanoma = tested on: SK-MEL-28 melanoma
786-0 renal = tested on: 786-0 renal
SK-MEL-5 melanoma = tested on: SK-MEL-5 melanoma
HOP-62 NSCLC = tested on: HOP-62 NSCLC
K-562 leukemia = tested on: K-562 leukemia
HCT-116 colon = tested on: HCT-116 colon
SNB-19 CNS = tested on: SNB-19 CNS
SN12C renal = tested on: SN12C renal
SK-MEL-2 melanoma = tested on: SK-MEL-2 melanoma
ACHN renal = tested on: ACHN renal
MDA-MB-231 breast = tested on: MDA-MB-231 breast
A498 renal = tested on: A498 renal
RXF 393 renal = tested on: RXF 393 renal
SR leukemia = tested on: SR leukemia
NCI-H522 lung = tested on: NCI-H522 lung
SF-268 CNS = tested on: SF-268 CNS
HOP-92 NSCLC = tested on: HOP-92 NSCLC
A549 NSCLC = tested on: A549 NSCLC
SF-295 CNS = tested on: SF-295 CNS
U251 CNS = tested on: U251 CNS
HCT-15 colon = tested on: HCT-15 colon
OVCAR-4 ovarian = tested on: OVCAR-4 ovarian
SNB-75 CNS = tested on: SNB-75 CNS
KM12 colon = tested on: KM12 colon
MCF7 breast = tested on: MCF7 breast
CCRF-CEM leukemia = tested on: CCRF-CEM leukemia
MDA-MB-435 = tested on: MDA-MB-435

COc1ccc(C2SCC(=O)N2NC(=O)C(O)c2ccccc2)cc1 (stereo unspecified)
GI50 (PC-3 prostate): > 100 µM
TGI (PC-3 prostate): > 100 µM
GI50 (SK-MEL-28 melanoma): > 100 µM
TGI (SK-MEL-28 melanoma): > 100 µM
GI50 (786-0 renal): > 100 µM
TGI (786-0 renal): > 100 µM
GI50 (SK-MEL-5 melanoma): > 100 µM
TGI (SK-MEL-5 melanoma): > 100 µM
GI50 (HOP-62 NSCLC): > 100 µM
TGI (HOP-62 NSCLC): > 100 µM
GI50 (K-562 leukemia): 55.5 µM
TGI (K-562 leukemia): > 100 µM
GI50 (HCT-116 colon): > 100 µM
TGI (HCT-116 colon): > 100 µM
GI50 (SNB-19 CNS): > 100 µM
TGI (SNB-19 CNS): > 100 µM
GI50 (SN12C renal): > 100 µM
TGI (SN12C renal): > 100 µM
GI50 (SK-MEL-2 melanoma): > 100 µM
TGI (SK-MEL-2 melanoma): > 100 µM
GI50 (ACHN renal): > 100 µM
TGI (ACHN renal): > 100 µM
GI50 (MDA-MB-231 breast): > 100 µM
TGI (MDA-MB-231 breast): > 100 µM
GI50 (A498 renal): > 100 µM
TGI (A498 renal): > 100 µM
GI50 (RXF 393 renal): > 100 µM
TGI (RXF 393 renal): > 100 µM
GI50 (SR leukemia): > 100 µM
TGI (SR leukemia): > 100 µM
GI50 (NCI-H522 lung): > 100 µM
TGI (NCI-H522 lung): > 100 µM
GI50 (SF-268 CNS): > 100 µM
TGI (SF-268 CNS): > 100 µM
GI50 (HOP-92 NSCLC): > 100 µM
TGI (HOP-92 NSCLC): > 100 µM
GI50 (A549 NSCLC): > 100 µM
TGI (A549 NSCLC): > 100 µM
GI50 (SF-295 CNS): > 100 µM
TGI (SF-295 CNS): > 100 µM
GI50 (U251 CNS): > 100 µM
TGI (U251 CNS): > 100 µM
GI50 (HCT-15 colon): > 100 µM
TGI (HCT-15 colon): > 100 µM
GI50 (OVCAR-4 ovarian): > 100 µM
TGI (OVCAR-4 ovarian): > 100 µM
GI50 (SNB-75 CNS): 80.9 µM
TGI (SNB-75 CNS): > 100 µM
GI50 (KM12 colon): > 100 µM
TGI (KM12 colon): > 100 µM
GI50 (MCF7 breast): > 100 µM
TGI (MCF7 breast): > 100 µM
GI50 (CCRF-CEM leukemia): > 100 µM
TGI (CCRF-CEM leukemia): > 100 µM
GI50 (MDA-MB-435): > 100 µM
TGI (MDA-MB-435): > 100 µM
